Assay results from patent publication US20080118437A1, “Diagnosis and treatment O prostate cancer” (Regents of the University of Michigan, priority 2006, published 2008).

Experiments:
[1] = tested on: VCaP cells; test: Fluorescence-based migration assay toward hrMCP-1; type: cell-based, human; conditions: MCP-1 1-100 ng/mL
Protocol: (§1) Flouresence-based Migration Assay—Cell migration was assessed using the Innocyte Cell Migration Assay (Calbiochem, Inc.) following the manufacturer's instructions. Briefly, increasing concentrations of MCP-1 (1-100 ng/mL) in the presence and absence of CCR2 inhibitors or neutralizing antibodies were added to the lower chamber of a 96 well plate. Cells were harvested by 0.5 μM EDTA release and resuspended at 2.5×10^5 cells/mL in serum free media. 2.5×10^4 cells were added to the upper chamber and allowed to migrate through the membrane with 8 μm pores for 24 hours at 37° C. and 5% CO2 atmosphere. Cells that migrated through the membrane were detached and labeled with Calcein AM and fluorescence was measured using fluorescent plate reader with excitation wavelength of 485 nm and emission wavelength of 520 nm. The experiments were repeated twice and each conditioned was performed in quadruplicate in each experiment.

[2] = tested on: PC-3 cells; test: Fluorescence-based migration assay toward hrMCP-1; type: cell-based, human; conditions: MCP-1 1-100 ng/mL
Protocol: as §1

[3] = tested on: VCaP cells; test: Immunoblot analysis of CCL2 stimulated VCaP cells; type: cell-based, human; conditions: CCL2 100 ng/mL for 24 hours
Protocol: Cells were lysed in RIPA buffer (50 mM Tris-HCl, pH 7.4, 1% NP-40, 150 mM NaCl, 1 mM EDTA, 1 mM PMSF, 1 mM Na3VO4, 1 mM NaF, 1 μM okadaic acid and 1 μg/mL aprotinin, leupeptin and pepstatin). Proteins were separated under reducing conditions by SDS-PAGE and transferred onto nitrocellulose membranes. The membranes were blocked with 5% milk in TBST (0.1% Tween in TBS) for 1 hour at room temperature, then were incubated overnight at 4° C. with primary antibodies. Membranes were washed 3 times prior to incubation with HRP-conjugated secondary antibodies (Cell Signaling) for 1 hour at room temperature. Protein expression was visualized by ECL chemiluminescence (Promega, Madison, Wis.) and quantitated using Image J software (NCl, Bethesda, Md.).

[4] = tested on: PC-3 cells; test: Transwell migration assay toward hrCCL2; type: cell-based, human; conditions: hrCCL2 100 ng/mL, 24 hours
Protocol: (§2) Increasing concentrations of CCL2 (1-100 ng/mL) or conditioned media was added to the lower chamber of a 24-well plate. Cells were harvested by EDTA release and resuspended in serum free media at 5×10^4 cells/ml. 2.5×10^4 cells were added to the upper chamber of the transwell insert and incubated for 24 hours at 37° C. and 5% CO^2 atmosphere. At the end of the incubation period, the cells were fixed with 4% formaldehyde in PBS for 5 minutes. Non-adherent cells were removed from inside the inserts with a cotton-tipped applicator. Cells which had migrated to the underside of the insert were stained with 0.5% crystal violet for 5 minutes and rinsed thoroughly with tap water. Inserts were allowed to dry and the cells were counted using an inverted microscope.

[5] = tested on: VCaP xenografts; test: VCaP subcutaneous xenograft model of tumorigenesis; type: in vivo, male SCID mice
Protocol: Xenograft tumors were established as previously described (Loberg et al., Urol Oncol 24 (2006) 161-168). Briefly, male SCID mice (5-6 weeks of age) were injected subcutaneously in the flank with 1×10^6 VCaP cells in 200 μL Matrigel (BD Biosciences, Inc.). Tumor volumes were calculated by caliper measurement performed weekly to monitor and track tumor growth (tumor volume=L×W×W×0.56). […] Mice were treated with 2 mg/Kg antibody twice weekly by intraperitoneal injection, beginning on Day 28 and for the remainder of the study.
Xenograft tumors were harvested and placed in fresh 10% formalin. Tumors were paraffin-embedded and 5 μm sections were cut and placed on glass slides. Hematoxylin and eosin stain was performed per the manufacturer's instructions (Sigma, Inc.). Identification of neovascularization was accomplished by labeling with an anti-CD31 antibody and macrophage infiltration was identified using an anti-CD68 antibody. Tissue sections were incubated for 10 minutes in citrate buffer, pH 6.0 and microwaved. Sections were incubated with anti-CD31 (DakoCytomation, Inc.; 1:50) or anti-CD68 (DaKoCytomation, Inc.; 1:1600) for 30 minutes and detected with LSAB+detection/DAB (3,3′-Diaminobenzidine; Sigma, Inc.) for 5 minutes. Slides were dipped in hematoxylin for 1 second as a counterstain.

[6] = tested on: PC-3Luc cells; test: Bioluminescent in vivo model of metastasis (Example 4, antibodies and/or docetaxel); design: species or system male SCID mice
Protocol: Bioluminescent imaging of PC-3Luc was preformed as previously described through The University of Michigan Small Animal Imaging Resource facility (MSAIR) (Loberg et al., 2006. Neoplasia. 8:578-586). Briefly, PC-3Luc cells were introduced into male SCID mice (5-6 wks of age) by intracardiac injections. Mice were serially imaged weekly for up to 12 weeks using a CCD IVIS system using a 50 mm lens (Xenogen Corp, Alameda, Calif.) and the results were analyzed using LIVING IMAGE software (Xenogen Corp.). Mice were separated into groups and treatment began at week 2 post-intracardiac injection and mice received 2 mg/Kg antibody twice weekly by intraperitoneal (i.p.) injection (for up to eight weeks) and/or 40 mg/Kg Taxotere i.p. injection once per week for three weeks. Mice were injected with luciferin (40 mg/mL) intraperitoneally and ventral images were acquired 15 min postinjection under 1.75% isofluorane/air anesthesia. Total tumor burden of each animal was calculated using regions of interest (ROIs) that encompassed the entire animal. Animals were sacrificed after week 6 image and individual organs were harvested and immediately placed in formalin.

[7] = tested on: U937 premonocytic cells; test: Macrophage migration assay (modified Boyden chamber); type: cell-based, human; conditions: VCaP conditioned media; pre-incubation 30 μg/mL
Protocol: as §2, with “Increasing concentrations of CCL2 (1-100 ng/mL) or conditioned media was added to the lower chamber of a 24-well plate.” left out, “by 0.5 μM” for “by”, “CO2” for “CO^2”, “with” for “with a”, “swabs.” for “applicator.”, “that” for “which”

[8] = molecular target: mouse CCL2/JE (Mus musculus, UniProt P10148); test: Cross-reactivity / neutralization; type: binding

cross-reaction with or neutralization of mouse CCL2/JE [8]: do not cross-react with or neutralize
Substance: CNTO888: human IgG1κ antibody that neutralizes human CCL2
effect on MCP-1 induced dose dependent migration of VCaP cells [1]: attenuated | effect on MCP-1 induced dose dependent migration of PC-3 cells [2]: attenuated | CCL2 induced Akt phosphorylation and p44/p42 MAPK phosphorylation [3]: attenuated | hrCCL2-induced migration, mean ±SD [4]: 217±29 | attenuation of VCaP subcutaneous tumor growth ([5]; 2 mg/Kg twice weekly i.p.): 42.2% | reduction in tumor volume / tumor growth on Day 50 compared to control antibody ([5]; 2 mg/Kg twice weekly i.p. from Day 28 for 3 weeks): 42.2% | macrophage infiltration, CD68+ cells, mean ±SD ([5]; VCaP xenograft, 2 mg/Kg twice weekly i.p.): 9.00±7.94 cells per 100× objective field | angiogenesis by CD31 staining of xenograft tumors ([5]; compared to isotype controls): decreased the amount of angiogenesis | reduction in overall tumor burden compared to control antibody ([6]; Day 35, 2 mg/Kg twice weekly i.p. for three weeks from Day 14): 46.52% | reduction in tibia-specific tumor burden ([6]; Day 35, compared to control antibody): 45.49% | animals of group counted at Wk 6 (tumor regression, Table 2) ([6]; Wk 6 = First week after cessation of Taxotere): 1 of 9 | total tumor burden at Day 35 ([6]; antibodies 2 mg/Kg i.p. twice weekly, docetaxel 40 mg/Kg i.p.): 52.78 % of PBS-treated animals | number of migrating U937 cells [7]: 225±111
